These results are taken from patent US8859574B2 (IRM LLC, priority 2008, dated 2014).

The target of the assay is T1, IGF-1R Ba/F3 (Homo sapiens, UniProt P08069).
T1 construct: fused on or other part: TEL- (or BCR-) IGF-1R in Ba/F3: the kinase part holds the site
Description: Ba/F3 Cell Viability Inhibition Assay (IGF-1R Ba/F3). In kind it is cell-based, murine. The conditions noted are these: Tel-TK transformed Ba/F3 cells, 48 hours, Britelite luminescence. The method in brief: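 IL-3-independent murine Ba/F3 cells transformed with a TEL/BCR-fused IGF-1R kinase were seeded at 3750 cells/well and exposed to serially diluted compound for 48 h at 37 °C. Viability was read by Britelite luminescence. IC50 is the concentration giving 50% of DMSO-control viability, from a logistic fit.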

T1 sequence (P08069 999-1274 limits assumed): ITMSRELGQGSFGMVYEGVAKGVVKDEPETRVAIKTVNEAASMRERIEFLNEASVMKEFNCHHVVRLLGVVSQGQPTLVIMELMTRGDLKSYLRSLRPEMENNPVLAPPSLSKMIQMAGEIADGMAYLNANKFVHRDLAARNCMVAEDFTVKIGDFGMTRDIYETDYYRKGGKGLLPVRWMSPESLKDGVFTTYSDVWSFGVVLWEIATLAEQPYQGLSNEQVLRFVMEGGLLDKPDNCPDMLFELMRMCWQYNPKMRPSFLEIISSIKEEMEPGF

Consider `Cc1cc(Nc2nc(Nc3cc(C)c(C4CCN([C@H]5CCN(S(C)(=O)=O)C5)CC4)cc3F)ncc2Cl)n[nH]1` [Compound 313, (S)-5-chloro-N2-(2-fluoro-5-methyl-4-(1-(1-(methylsulfonyl)pyrrolidin-3-yl)piperidin-4-yl)phenyl)-N4-(5-methyl-1H-pyrazol-3-yl)pyrimidine-2,4-diamine], for which the IC50 was 30 nM. With `CCc1cc(Nc2nc(Nc3cc(C)c(C4CCN(C)CC4)cc3F)ncc2Cl)n[nH]1` [Compound 271, 5-chloro-N4-(5-ethyl-1H-pyrazol-3-yl)-N2-(2-fluoro-5-methyl-4-(1-methylpiperidin-4-yl)phenyl)pyrimidine-2,4-diamine] the figure was 13 nM. With `Cc1cc(Nc2nc(Nc3cc(C)c(C4CCN([C@H](C)C(N)=O)CC4)cc3F)ncc2Cl)n[nH]1` [Compound 165, (R)-2-(4-(4-(5-chloro-4-(5-methyl-1H-pyrazol-3-ylamino)pyrimidin-2-ylamino)-5-fluoro-2-methylphenyl)piperidin-1-yl)propanamide] the figure was 38 nM; with `Cc1cc(Nc2nc(Nc3cc(C)c(C4CCN(C(=O)CCCN5CCOCC5)CC4)cc3C)ncc2Cl)n[nH]1` [Compound 224, 1-(4-(4-(5-Chloro-4-(5-methyl-1H-pyrazol-3-ylamino)pyrimidin-2-ylamino)-2,5-dimethylphenyl)piperidin-1-yl)-4-morpholinobutan-1-one], 20 nM; with `Cc1cc(Nc2nc(Nc3cc(C4CCN(C(C)C(N)=O)CC4)c(F)cc3C)ncc2Cl)n[nH]1` (stereo not drawn) [Compound 48, 2-(4-(5-(5-chloro-4-(5-methyl-1H-pyrazol-3-ylamino)pyrimidin-2-ylamino)-2-fluoro-4-methylphenyl)piperidin-1-yl)propanamide], 3680 nM. In the case of `Cc1cc(Nc2nc(Nc3cc(C)c(C4CCN(C(=O)CN5CCCCC5)CC4)cc3C)ncc2Cl)n[nH]1` [Compound 101, 1-(4-(4-(5-chloro-4-(5-methyl-1H-pyrazol-3-ylamino)pyrimidin-2-ylamino)-2,5-dimethylphenyl)piperidin-1-yl)-2-(piperidin-1-yl)ethanone] it was 7 nM. `Cc1cc(Nc2nc(Nc3cc(C)c(C4CCN(Cc5cccnc5)CC4)cc3C)ncc2Cl)n[nH]1` [Compound 308, 5-chloro-N2-(2,5-dimethyl-4-(1-(pyridin-3-ylmethyl)piperidin-4-yl)phenyl)-N4-(5-methyl-1H-pyrazol-3-yl)pyrimidine-2,4-diamine] gave an IC50 of 6 nM.

Consider `Cc1cc(Nc2nc(Nc3cc(C)c(C4CCN(C5CC5)CC4)cc3C)ncc2Cl)n[nH]1` [Compound 250, 5-chloro-N2-(4-(1-cyclopropylpiperidin-4-yl)-2,5-dimethylphenyl)-N4-(5-methyl-1H-pyrazol-3-yl)pyrimidine-2,4-diamine], for which 25 nM corresponded to half-maximal inhibition (IC50).

Compound `Cc1cc(Nc2nc(Nc3cc(C)c(C4CCN(C(=O)[C@H]5C[C@@H](O)CN5C)CC4)cc3C)ncc2Cl)n[nH]1` [Compound 123, (4-(4-(5-chloro-4-(5-methyl-1H-pyrazol-3-ylamino)pyrimidin-2-ylamino)-2,5-dimethylphenyl)piperidin-1-yl)((2R,4R)-4-hydroxy-1-methylpyrrolidin-2-yl)methanone] displayed a concentration for half-maximal inhibition (IC50) of 48 nM. In the case of `Cc1noc(CN2CCC(c3cc(C)c(Nc4ncc(Cl)c(Nc5cc(C)[nH]n5)n4)cc3C)CC2)n1` [Compound 302, 5-chloro-N2-(2,5-dimethyl-4-(1-((3-methyl-1,2,4-oxadiazol-5-yl)methyl)piperidin-4-yl)phenyl)-N4-(5-methyl-1H-pyrazol-3-yl)pyrimidine-2,4-diamine] it was 6 nM; in that of `CNC1(C(=O)N2CCC(c3cc(F)c(Nc4ncc(Cl)c(Nc5cc(C)[nH]n5)n4)cc3C)CC2)CCC1` [Compound 177, (4-(4-(5-chloro-4-(5-methyl-1H-pyrazol-3-ylamino)pyrimidin-2-ylamino)-5-fluoro-2-methylphenyl)piperidin-1-yl)(1-(methylamino)cyclobutyl)methanone], 80 nM; in that of `Cc1cc(Nc2nc(Nc3cc(C)c(C4=CCNCC4)cc3F)ncc2Cl)n[nH]1` [Compound 150, 5-chloro-N2-(2-fluoro-5-methyl-4-(1,2,3,6-tetrahydropyridin-4-yl)phenyl)-N4-(5-methyl-1H-pyrazol-3-yl)pyrimidine-2,4-diamine], 25 nM.

The compound `Cc1cc(Nc2nc(Nc3cc(C)c(C4CCN(C5CCN(S(C)(=O)=O)CC5)CC4)cc3F)ncc2Cl)n[nH]1` [Compound 278, 5-chloro-N2-(2-fluoro-5-methyl-4-(1′-(methylsulfonyl)-1,4′-bipiperidin-4-yl)phenyl)-N4-(5-methyl-1H-pyrazol-3-yl)pyrimidine-2,4-diamine] returned a half-maximal inhibitory concentration (IC50) of 9 nM. In the case of `CCNC1(C(=O)N2CCC(c3cc(C)c(Nc4ncc(Cl)c(Nc5cc(C)[nH]n5)n4)cc3C)CC2)CC1` [Compound 170, (4-(4-(5-chloro-4-(5-methyl-1H-pyrazol-3-ylamino)pyrimidin-2-ylamino)-2,5-dimethylphenyl)piperidin-1-yl)(1-(ethylamino)cyclopropyl)methanone] it was 3 nM.

For the compound `Cc1cc(Nc2nc(Nc3cc(C)c(C4CCN(C(C)C(N)=O)CC4)cc3F)ncc2C(F)(F)F)n[nH]1` (stereo not drawn) [Compound 53, 2-(4-(5-fluoro-2-methyl-4-(4-(5-methyl-1H-pyrazol-3-ylamino)-5-(trifluoromethyl)pyrimidin-2-ylamino)phenyl)piperidin-1-yl)propanamide], half-maximal inhibition (IC50) was put at 78 nM. `Cc1cc(Nc2nc(Nc3cc(C)c(C4CCN(C(=O)c5cnn(C)c5C(F)(F)F)CC4)cc3F)ncc2Cl)n[nH]1` [Compound 130, (4-(4-(5-chloro-4-(5-methyl-1H-pyrazol-3-ylamino)pyrimidin-2-ylamino)-5-fluoro-2-methylphenyl)piperidin-1-yl)(1-methyl-5-(trifluoromethyl)-1H-pyrazol-4-yl)methanone] displayed a half-inhibitory concentration (IC50) of 61 nM. With `Cc1cc(Nc2nc(Nc3cc(C)c(C4CCN(C(C)C)CC4)cc3C)ncc2Cl)n[nH]1` [Compound 12, 5-chloro-N2-(4-(1-isopropylpiperidin-4-yl)-2,5-dimethylphenyl)-N4-(5-methyl-1H-pyrazol-3-yl)pyrimidine-2,4-diamine] the figure was 10 nM; with `COCCN1CCC(c2cc(C)c(Nc3ncc(Cl)c(Nc4cc(C)[nH]n4)n3)cc2C)CC1` [Compound 212, 5-chloro-N2-(4-(1-(2-methoxyethyl)piperidin-4-yl)-2,5-dimethylphenyl)-N4-(5-methyl-1H-pyrazol-3-yl)pyrimidine-2,4-diamine], 13 nM; with `Cc1cc(Nc2nc(Nc3cc(Cl)c(C4CCN(C(=O)CN5CCC5)CC4)cc3C)ncc2Cl)n[nH]1` [Compound 96, 2-(azetidin-1-yl)-1-(4-(2-chloro-4-(5-chloro-4-(5-methyl-1H-pyrazol-3-ylamino)pyrimidin-2-ylamino)-5-methylphenyl)piperidin-1-yl)ethanone], 24 nM. On to `Cc1cc(Nc2nc(Nc3cc(C)c([C@H]4CCN[C@@H](C)C4)cc3F)ncc2Cl)n[nH]1` (relative stereo) [Compound 280, 5-chloro-N2-(2-fluoro-5-methyl-4-((cis)-2-methylpiperidin-4-yl)phenyl)-N4-(5-methyl-1H-pyrazol-3-yl)pyrimidine-2,4-diamine], for which half-maximal inhibition (IC50) was put at 163 nM. For `Cc1cc(Nc2nc(Nc3cc(C)c(C4CCN(C(=O)CCCN5CCCC5)CC4)cc3C)ncc2Cl)n[nH]1` [Compound 227, 1-(4-(4-(5-chloro-4-(5-methyl-1H-pyrazol-3-ylamino)pyrimidin-2-ylamino)-2,5-dimethylphenyl)piperidin-1-yl)-4-(pyrrolidin-1-yl)butan-1-one], the half-inhibitory concentration (IC50) amounted to 123 nM. With `Cc1cc(Nc2nc(Nc3cc(C)c(C4CCN(C5CCNCC5)CC4)cc3F)ncc2Cl)n[nH]1` [Compound 276, N2-(4-(1,4′-bipiperidin-4-yl)-2-fluoro-5-methylphenyl)-5-chloro-N4-(5-methyl-1H-pyrazol-3-yl)pyrimidine-2,4-diamine] the figure was 437 nM; with `Cc1cc(C2CCN(C(=O)CN(C)C)CC2)c(C)cc1Nc1ncc(Cl)c(Nc2cc(C3CC3)[nH]n2)n1` [Compound 186, 1-(4-(4-(5-chloro-4-(5-cyclopropyl-1H-pyrazol-3-ylamino)pyrimidin-2-ylamino)-2,5-dimethylphenyl)piperidin-1-yl)-2-(dimethylamino)ethanone], 12 nM.

As to `Cc1cc(Nc2nc(Nc3cc(C#N)c(C4CCN(C)CC4)cc3C)ncc2Cl)n[nH]1` [Compound 286, 5-(5-chloro-4-(5-methyl-1H-pyrazol-3-ylamino)pyrimidin-2-ylamino)-4-methyl-2-(1-methylpiperidin-4-yl)benzonitrile], the IC50 amounted to 37 nM. With `Cc1cc(Nc2nc(Nc3cc(C)c(C4CCN([C@H]5CC[C@@H](O)CC5)CC4)cc3F)ncc2Cl)n[nH]1` [Compound 311, Cis-4-(4-(4-(5-chloro-4-(5-methyl-1H-pyrazol-3-ylamino)pyrimidin-2-ylamino)-5-fluoro-2-methylphenyl)piperidin-1-yl)cyclohexanol] the figure was 21 nM; with `Cc1cc(Nc2nc(Nc3cc(C)c(C4CCN(C(=O)C5CCNCC5)CC4)cc3F)ncc2Cl)n[nH]1` [Compound 115, (4-(4-(5-chloro-4-(5-methyl-1H-pyrazol-3-ylamino)pyrimidin-2-ylamino)-5-fluoro-2-methylphenyl)piperidin-1-yl)(piperidin-4-yl)methanone], 1570 nM; with `Cc1cc(Nc2nc(Nc3cc(C)c(C4CCN(C(=O)C5CCCC(=O)N5)CC4)cc3F)ncc2Cl)n[nH]1` (stereo not drawn) [Compound 142, 6-(4-(4-(5-chloro-4-(5-methyl-1H-pyrazol-3-ylamino)pyrimidin-2-ylamino)-5-fluoro-2-methylphenyl)piperidine-1-carbonyl)piperidin-2-one], 282 nM.
